# According to US20230286983A1 (4E Therapeutics, Inc., priority 2020, published 2023):
# pIC50: −log10 of the molar value.
# Assays:
# [1] = molecular target: Cdc2-like kinase 4 (CLK4) (Homo sapiens, UniProt Q9HAZ1); experiment: Off-target kinase screen CLK4; format: biochemical; settings: 1 μM test compound
# From the text: (§1) These kinases were chosen because they are the only known off-target hit kinases for eFT508. These assays were done using recombinant human kinases (CLK4, DRAK1 and PKG2) in a substrate phosphorylation assay. % activity remaining after MNK inhibitor treatment is indicated in Table 12.
# [2] = molecular target: T1, death-associated protein kinase-related apoptosis-inducing protein kinase 1 (DRAK1) (Homo sapiens, UniProt Q9UEE5); experiment: Off-target kinase screen DRAK1; format: biochemical; settings: 1 μM test compound
# T1 sequence (Q9UEE5 1-414): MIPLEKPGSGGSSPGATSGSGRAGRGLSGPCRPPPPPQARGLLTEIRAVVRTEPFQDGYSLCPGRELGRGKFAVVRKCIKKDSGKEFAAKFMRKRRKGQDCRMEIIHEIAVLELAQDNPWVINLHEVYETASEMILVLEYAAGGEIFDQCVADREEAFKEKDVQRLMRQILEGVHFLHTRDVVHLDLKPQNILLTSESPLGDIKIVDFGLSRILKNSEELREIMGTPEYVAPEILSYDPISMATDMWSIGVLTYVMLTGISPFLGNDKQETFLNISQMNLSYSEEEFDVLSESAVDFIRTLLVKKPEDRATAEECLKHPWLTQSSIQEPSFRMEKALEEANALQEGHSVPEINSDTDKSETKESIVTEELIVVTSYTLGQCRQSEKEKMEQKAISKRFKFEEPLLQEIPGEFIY
# From the text: as §1
# [3] = Liver microsome stability, human; format: in vitro ADME; settings: liver microsomes; for half-life: read-out: Human liver microsomes t1/2
# [4] = Liver microsome stability, rat; format: in vitro ADME; settings: Rat liver microsomes (#); for microsomal CLint: read-out: CLint rodent; for half-life: read-out: Rodent liver microsomes t1/2
# P-gp (human MDR1, ABCB1) = experiment: MDCK-MDR1 permeability (blood brain barrier permeability); format: in vitro ADME, Canine; settings: dog; for Papp A→B at 5 μM: MDCK-MDR1, Apical to basolateral transport; for Papp A→B at 5 μM / Papp B→A at 5 μM: average of two experiments; for Papp B→A at 5 μM: MDCK-MDR1, Basolateral to apical transport; for efflux ratio at 5 μM: MDCK-MDR1, 5 μM, read-out: Efflux ratio (ratio B-A/A-B)
# MNK2 = MNK2 (Homo sapiens, UniProt Q9HBH9); experiment: MNK2 substrate phosphorylation assay; format: biochemical; settings: recombinant human kinase
# Sequence of MNK2 (Q9HBH9 whole entry): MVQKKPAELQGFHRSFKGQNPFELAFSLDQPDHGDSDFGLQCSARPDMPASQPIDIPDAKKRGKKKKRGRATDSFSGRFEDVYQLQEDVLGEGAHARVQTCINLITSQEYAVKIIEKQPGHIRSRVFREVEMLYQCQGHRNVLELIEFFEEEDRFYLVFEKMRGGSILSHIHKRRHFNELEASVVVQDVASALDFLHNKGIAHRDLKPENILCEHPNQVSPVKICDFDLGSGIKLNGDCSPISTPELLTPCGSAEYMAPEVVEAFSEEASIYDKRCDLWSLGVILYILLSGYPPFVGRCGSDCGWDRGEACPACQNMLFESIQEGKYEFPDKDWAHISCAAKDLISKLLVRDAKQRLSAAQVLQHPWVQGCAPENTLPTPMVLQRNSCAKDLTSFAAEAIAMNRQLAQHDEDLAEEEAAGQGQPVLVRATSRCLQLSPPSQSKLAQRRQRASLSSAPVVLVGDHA
# [5] = tested on: eIF4E phosphorylation at Serine 209 in Karpas 299; experiment: eIF4E phosphorylation in Karpas 299 cells (sandwich ELISA); format: cell-based; settings: Homo sapiens, read-out: Karpas 299 cell IC50
# Description: The ability of MNK inhibitors described herein to inhibit eIF4E phosphorylation at Serine 209 in Karpas 299, Human Non-Hodgkin's Ki-positive Large Cell Lymphoma cell line was tested by sandwich enzyme linked immune-absorbance assay.
# [6] = molecular target: T2, protein kinase G 2 (PKG2) (Homo sapiens, UniProt Q13237); experiment: Off-target kinase screen PKG2; format: biochemical; settings: 1 μM test compound
# T2 sequence (Q13237 1-762): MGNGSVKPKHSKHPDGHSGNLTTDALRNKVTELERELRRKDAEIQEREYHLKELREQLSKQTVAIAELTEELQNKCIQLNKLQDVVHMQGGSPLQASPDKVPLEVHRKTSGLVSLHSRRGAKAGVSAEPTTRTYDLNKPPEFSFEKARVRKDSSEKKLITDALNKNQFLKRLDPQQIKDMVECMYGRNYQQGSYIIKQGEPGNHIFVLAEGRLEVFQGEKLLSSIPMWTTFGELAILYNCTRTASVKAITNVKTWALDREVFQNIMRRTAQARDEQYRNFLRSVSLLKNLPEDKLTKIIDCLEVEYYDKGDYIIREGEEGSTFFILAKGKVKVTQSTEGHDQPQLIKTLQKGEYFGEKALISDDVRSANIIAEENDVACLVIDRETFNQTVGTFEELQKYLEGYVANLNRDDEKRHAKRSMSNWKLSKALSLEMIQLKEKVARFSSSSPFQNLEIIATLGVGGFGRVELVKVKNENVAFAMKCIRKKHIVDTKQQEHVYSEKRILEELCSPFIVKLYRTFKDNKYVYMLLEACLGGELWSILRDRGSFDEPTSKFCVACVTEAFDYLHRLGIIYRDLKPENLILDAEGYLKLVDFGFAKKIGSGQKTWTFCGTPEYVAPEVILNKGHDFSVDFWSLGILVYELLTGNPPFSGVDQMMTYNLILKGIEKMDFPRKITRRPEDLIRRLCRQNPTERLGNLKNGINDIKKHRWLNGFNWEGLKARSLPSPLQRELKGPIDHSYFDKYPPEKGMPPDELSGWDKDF
# From the text: as §1
# [7] = tested on: eIF4E phosphorylation at Serine 209 in the human embryonic kidney (HEK) 293 cell line; experiment: eIF4E phosphorylation in HEK 293 cells (fluorescent plate reader); format: cell-based; settings: eIF4E phosphorylation at Serine 209, 2 hours exposure; for pIC50: Homo sapiens
# Description: The ability of MNK inhibitors described herein to inhibit eIF4E phosphorylation at Serine 209 in the human embryonic kidney (HEK) 293 cell line was tested by exposing the cells to compound for 2 hours and then measuring eIF4E phosphorylation with a phosphorylation-specific antibody in a fluorescent plate reader. These experiments were done with HEK-293 cells plated on 96 well plates. Following treatment, cells were fixed with ice cold methanol for 10 min and then washed in 1× phosphate buffered saline (PBS) and the permeabilized with 0.02% Triton X-100 in 10% normal goat serum made up in PBS. Primary antibody was applied overnight at a concentration dilution of 1:2000 (p-eIF4E antibody from Cell Signaling ab76256). Following washing, cells were then exposed to secondary antibody conjugated to alexa-fluor 488 and then visualized on a Syngergy HTX plate reader. Fluorescence for p-eIF4E was measured and normalized to total DAPI fluorescence to determine the percentage of eIF4E phosphorylation in each well. Data were plotted in Graphpad Prism V8 to determine concentration-response effects and calculate IC50 values.
# [8] = Liver microsome stability, mouse; format: in vitro ADME; settings: for half-life: mouse, liver microsomes
# MDCK-MDR1 = MDCK-MDR1 permeability (blood brain barrier permeability); format: in vitro ADME, Canine; settings: 5 μM
# MNK1 = MNK1 (Homo sapiens, UniProt Q9BUB5); experiment: MNK1 substrate phosphorylation assay; format: biochemical; settings: recombinant human kinase
# Sequence of MNK1 (Q9BUB5 whole entry): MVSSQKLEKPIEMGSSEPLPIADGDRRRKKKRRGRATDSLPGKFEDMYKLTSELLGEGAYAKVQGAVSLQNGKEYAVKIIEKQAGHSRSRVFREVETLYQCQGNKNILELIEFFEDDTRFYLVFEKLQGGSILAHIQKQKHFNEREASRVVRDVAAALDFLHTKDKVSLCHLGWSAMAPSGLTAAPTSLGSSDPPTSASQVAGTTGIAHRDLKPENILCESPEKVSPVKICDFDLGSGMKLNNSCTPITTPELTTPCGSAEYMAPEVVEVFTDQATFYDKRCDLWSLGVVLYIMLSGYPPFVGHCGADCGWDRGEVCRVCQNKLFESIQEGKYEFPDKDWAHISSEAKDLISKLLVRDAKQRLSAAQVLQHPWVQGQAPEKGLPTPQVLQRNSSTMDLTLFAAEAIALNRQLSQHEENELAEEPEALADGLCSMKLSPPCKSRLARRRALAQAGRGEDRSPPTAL
# [9] = tested on: eIF4E phosphorylation at Serine 209 in the human osteosarcoma (U2OS) cell line; experiment: eIF4E phosphorylation in U2OS cells (fluorescent plate reader); format: cell-based; settings: eIF4E phosphorylation at Serine 209, 2 hours exposure; for pIC50: Homo sapiens, U2OS
# Description: The ability of MNK inhibitors described herein to inhibit eIF4E phosphorylation at Serine 209 in the human osteosarcoma (U2OS) cell line was tested by exposing the cells to compound for 2 hours and then measuring eIF4E phosphorylation with a phosphorylation-specific antibody in a fluorescent plate reader.
# Sequence of Cdc2-like kinase 4 (CLK4) (Q9HAZ1 whole entry): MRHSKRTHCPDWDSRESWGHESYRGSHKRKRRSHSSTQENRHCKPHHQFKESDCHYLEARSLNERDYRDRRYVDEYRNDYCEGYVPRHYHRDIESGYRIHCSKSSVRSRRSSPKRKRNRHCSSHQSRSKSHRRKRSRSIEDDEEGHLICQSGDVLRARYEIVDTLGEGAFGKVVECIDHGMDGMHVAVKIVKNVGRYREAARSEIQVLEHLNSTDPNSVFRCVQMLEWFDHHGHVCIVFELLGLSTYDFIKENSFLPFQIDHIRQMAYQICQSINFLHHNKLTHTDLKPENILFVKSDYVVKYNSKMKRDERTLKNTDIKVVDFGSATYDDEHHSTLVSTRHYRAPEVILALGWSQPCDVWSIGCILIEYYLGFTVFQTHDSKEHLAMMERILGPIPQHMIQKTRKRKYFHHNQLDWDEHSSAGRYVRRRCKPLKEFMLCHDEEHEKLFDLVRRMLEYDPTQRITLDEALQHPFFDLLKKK
compound,measurement,setting,value
"Cc1cc(Nc2cc(N)ncn2)c(=O)n2c1C(=O)NC2(C)C [Compound 4ET-01-003, 6-((6-Aminopyrimidin-4-yl)amino)-3,3,8-trimethyl-2,3-dihydroimidazo[1,5-a]pyridine-1,5-dione]",remaining activity at 1 µM,[1],91%
same,remaining activity at 1 µM,[2],65%
same,microsomal CLint,[3],1.93 µL/min/mg
same,half-life,[3],12 h
same,microsomal CLint,[4],2.33 µL/min/mg
same,half-life,[4],9.93 h
same,Papp A→B at 5 μM,"P-gp (human MDR1, ABCB1)",9.1 ×10⁻⁶ cm/s
same,Papp B→A at 5 μM,"P-gp (human MDR1, ABCB1)",13.3 ×10⁻⁶ cm/s
same,pIC50,MNK2,8.70
same,pIC50,[5],7.46
same,remaining activity at 1 µM,[6],88%
same,pIC50,[7]; HEK293,7.98
"Cc1cc(Nc2cc(NC(=O)C3CC3)ncn2)c(=O)n2c1C(=O)NC21Cc2ccccc2[C@@H]1F (single isomer, unassigned) [Compound 4ET-03-052A, N-(6-((1′-Fluoro-8-methyl-1,5-dioxo-1,1′,3′,5-tetrahydro-2H-spiro[imidazo[1,5-a]pyridine-3,2′-inden]-6-yl)amino)pyrimidin-4-yl)cyclopropanecarboxamide]",half-life,"[8]; mouse liver microsomes, Table 11b, read-out: T1/2",1.83 h
same,Efflux ratio (ratio B-A/A-B),MDCK-MDR1,6.6
same,Papp A→B at 5 μM,"P-gp (human MDR1, ABCB1)",12.1 ×10⁻⁶ cm/s
same,Papp B→A at 5 μM,"P-gp (human MDR1, ABCB1)",80.6 ×10⁻⁶ cm/s
same,pIC50,MNK2,9.30
same,pIC50,MNK1,8.33
same,pIC50,"[7]; HEK293, 2 h",7.72
"Cc1cc(Nc2cc(NCCNS(C)(=O)=O)ncn2)c(=O)n2c1C(=O)NC21CCCC1 [Compound 4ET-03-013, N-(2-((6-((8′-methyl-1′,5′-dioxo-1′,5′-dihydro-2′H-spiro[cyclopentane-1,3′-imidazo[1,5-a]pyridin]-6′-yl)amino)pyrimidin-4-yl)amino)ethyl)methanesulfonamide]",efflux ratio at 5 μM,"P-gp (human MDR1, ABCB1)",18.1
same,Papp A→B at 5 μM,"P-gp (human MDR1, ABCB1)",0.2 ×10⁻⁶ cm/s
same,Papp B→A at 5 μM,"P-gp (human MDR1, ABCB1)",3.9 ×10⁻⁶ cm/s
same,pIC50,MNK2,8.10
same,pIC50,MNK1,6.69
same,HEK 293 cell IC50,[7],inactive
same,U2OS cell IC50,[9],inactive
"Cc1cc(Nc2cc(N)ncn2)c(=O)n2c1C(=O)NC21CCC(NS(C)(=O)=O)CC1 (stereo not shown) [Compound 4ET-01-004, N-(6′-((6-Aminopyrimidin-4-yl)amino)-8′-methyl-1′,5′-dioxo-1′,5′-dihydro-2′H-spiro[cyclohexane-1,3′-imidazo[1,5-a]pyridin]-4-yl)methanesulfonamide]",remaining activity at 1 µM,[1],93%
same,remaining activity at 1 µM,[2],76%
same,microsomal CLint,[3],2.56 µL/min/mg
same,half-life,[3],9.02 h
same,microsomal CLint,[4],9.57 µL/min/mg
same,half-life,[4],2.42 h
same,efflux ratio at 5 μM,"P-gp (human MDR1, ABCB1)",4.4
same,Papp A→B at 5 μM,"P-gp (human MDR1, ABCB1)",0.1 ×10⁻⁶ cm/s
same,Papp B→A at 5 μM,"P-gp (human MDR1, ABCB1)",0.3 ×10⁻⁶ cm/s
same,pIC50,MNK2,8.09
same,pIC50,MNK1,6.98
same,remaining activity at 1 µM,[6],100%
same,pIC50,"[7]; HEK293, 2 h",7.47
"Cc1cc(Nc2cc(NC(=O)C(C)C)ncn2)c(=O)n2c1C(=O)NC21CCCC1 [Compound 4ET-03-005, N-(6-((8′-Methyl-1′,5′-dioxo-1′,5′-dihydro-2′H-spiro[cyclopentane-1,3′-imidazo[1,5-a]pyridin]-6′-yl)amino)pyrimidin-4-yl)isobutyramide]",microsomal CLint,[3],0.77 µL/min/mg
same,half-life,[3],29.9 h
same,microsomal CLint,[4],4.84 µL/min/mg
same,half-life,[4],4.78 h
same,efflux ratio at 5 μM,"P-gp (human MDR1, ABCB1)",3.8
same,Papp A→B at 5 μM,"P-gp (human MDR1, ABCB1)",15.5 ×10⁻⁶ cm/s
same,Papp B→A at 5 μM,"P-gp (human MDR1, ABCB1)",58.6 ×10⁻⁶ cm/s
same,pIC50,MNK2,8.74
same,pIC50,[5],8.19
same,pIC50,MNK1,7.69
same,pIC50,"[7]; HEK293, 2 h",8.59
same,pIC50,[9],8.29
"Cc1cc(Nc2cc(NCCNS(C)(=O)=O)ncn2)c(=O)n2c1C(=O)NC21CCCCC1 [Compound 4ET-02-004, N-(2-((6-((8′-methyl-1′,5′-dioxo-1′,5′-dihydro-2′H-spiro[cyclohexane-1,3′-imidazo[1,5-a]pyridin]-6′-yl)amino)pyrimidin-4-yl)amino)ethyl)methanesulfonamide]",microsomal CLint,"[8]; Mouse liver microsomes (*), read-out: CLint rodent",2.5 µL/min/mg
same,half-life,"[8]; Mouse liver microsomes (*), Table 11a, read-out: Rodent liver microsomes t1/2",9.25 h
same,remaining activity at 1 µM,[1],81%
same,remaining activity at 1 µM,[2],86%
same,microsomal CLint,[3],1.25 µL/min/mg
same,half-life,[3],18.5 h
same,efflux ratio at 5 μM,"P-gp (human MDR1, ABCB1)",30.2
same,Papp A→B at 5 μM,"P-gp (human MDR1, ABCB1)",0.3 ×10⁻⁶ cm/s
same,Papp B→A at 5 μM,"P-gp (human MDR1, ABCB1)",7.6 ×10⁻⁶ cm/s
same,pIC50,MNK2,8.68
same,pIC50,MNK1,7.21
same,remaining activity at 1 µM,[6],100%
same,pIC50,"[7]; HEK293, 2 h",7.51
same,pIC50,[9],7.52
"Cc1cc(Nc2cc(NCCO)ncn2)c(=O)n2c1C(=O)NC21CCCCC1 [Compound 4ET-02-001, 6′-((6-((2-Hydroxyethyl)amino)pyrimidin-4-yl)amino)-8′-methyl-2′H-spiro[cyclohexane-1,3′-imidazo[1,5-a]pyridine]-1′,5′-dione]",remaining activity at 1 µM,[1],92%
same,remaining activity at 1 µM,[2],81%
same,microsomal CLint,[3],2.51 µL/min/mg
same,half-life,[3],9.2 h
same,microsomal CLint,[4],2.54 µL/min/mg
same,half-life,[4],9.1 h
same,pIC50,MNK2,8.80
same,pIC50,[5],7.77
same,pIC50,MNK1,7.40
same,remaining activity at 1 µM,[6],99%
same,pIC50,"[7]; HEK293, 2 h",8.15
